In patent US12122761B2, “2-azaspiro[3.4]octane derivatives as M4 agonists” (NOVARTIS AG, priority 2019, dated 2024):

Key:
[1] = target: T1, human cloned CHRM2 receptor (M2_CHO cells) (Homo sapiens, UniProt P08172); test: CHRM2 Ca++ Flux Assay (agonist mode, FDSS 7000EX); type: cell-based; conditions: for Emax: Percent Activity measured to EC100 of Carbachol, read-out: M2 FDSS PA; for EC50: agonist mode, geometric mean if tested more than once, read-out: M2 FDSS EC50
T1 construct: expressed in transfected cells; host or cells: CHO-K1
T1 sequence (P08172 1-466): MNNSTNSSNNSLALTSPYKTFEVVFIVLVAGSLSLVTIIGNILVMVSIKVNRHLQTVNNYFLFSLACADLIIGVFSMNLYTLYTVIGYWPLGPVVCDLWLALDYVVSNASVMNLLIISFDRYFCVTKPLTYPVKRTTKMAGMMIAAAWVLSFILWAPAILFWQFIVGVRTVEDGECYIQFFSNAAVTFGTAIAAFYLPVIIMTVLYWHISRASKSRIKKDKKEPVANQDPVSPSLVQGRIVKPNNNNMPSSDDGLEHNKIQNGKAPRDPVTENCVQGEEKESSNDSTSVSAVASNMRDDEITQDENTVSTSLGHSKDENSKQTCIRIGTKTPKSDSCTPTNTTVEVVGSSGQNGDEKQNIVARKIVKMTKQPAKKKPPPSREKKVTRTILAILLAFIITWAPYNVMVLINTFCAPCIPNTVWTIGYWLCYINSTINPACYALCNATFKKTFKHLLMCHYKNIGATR
How it was run: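 Agonist-mode Ca++ flux in CHO-K1 cells stably expressing human CHRM2, dye-loaded, then held 60 min at room temperature in buffer with 20 μM ATP before compound addition; traces read over 3 minutes. Four-parameter fit of triplicate wells; percent activity relative to Carbachol EC100.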

[2] = target: T2, human cloned CHRM3 receptor (M3_CHO cells) (Homo sapiens, UniProt P20309); test: CHRM3 Ca++ Flux Assay (agonist mode, FDSS 7000EX); type: cell-based; conditions: for Emax: Percent Activity measured to EC100 of Carbachol, read-out: M3 FDSS PA; for EC50: agonist mode, geometric mean if tested more than once, read-out: M3 FDSS EC50
T2 construct: expressed in transfected cells; host or cells: CHO-K1
How it was run: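 Agonist-mode calcium flux: 11-point dose responses, triplicate wells, fluorescence followed for 3 minutes. Cells are M3_CHO or M5_CHO lines (human receptors) with Ca++ indicator in probenecid-containing HEPES/HBSS buffer. Percent activity is referenced to carbachol EC100, and curves come from four-parameter nonlinear regression.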

T2 sequence (P20309 whole entry): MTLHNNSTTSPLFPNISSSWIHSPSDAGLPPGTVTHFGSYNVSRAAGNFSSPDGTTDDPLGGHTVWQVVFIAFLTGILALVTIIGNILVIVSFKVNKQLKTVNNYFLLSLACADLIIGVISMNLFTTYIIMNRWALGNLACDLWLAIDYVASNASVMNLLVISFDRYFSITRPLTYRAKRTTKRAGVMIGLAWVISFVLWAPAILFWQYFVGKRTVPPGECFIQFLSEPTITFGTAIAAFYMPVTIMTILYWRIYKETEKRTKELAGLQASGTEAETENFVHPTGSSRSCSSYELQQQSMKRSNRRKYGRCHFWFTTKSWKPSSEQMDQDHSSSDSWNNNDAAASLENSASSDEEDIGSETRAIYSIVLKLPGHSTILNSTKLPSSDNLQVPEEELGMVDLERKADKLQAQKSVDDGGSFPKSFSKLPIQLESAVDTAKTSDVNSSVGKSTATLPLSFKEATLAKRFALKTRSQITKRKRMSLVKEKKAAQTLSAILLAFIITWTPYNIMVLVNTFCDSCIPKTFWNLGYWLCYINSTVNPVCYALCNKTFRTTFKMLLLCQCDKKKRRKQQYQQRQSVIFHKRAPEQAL

SMILES: CC1(COc2ccccc2C2CCN([C@@H]3CCC4(C3)CN(c3nnco3)C4)CC2)CCOCC1 [Example 2E, (R)-2-(6-(4-(2-((4-methyltetrahydro-2H-pyran-4-yl)methoxy)phenyl)piperidin-1-yl)-2-azaspiro[3.4]octan-2-yl)-1,3,4-oxadiazole]
- Emax [1]: 10%
- EC50 [1]: 90 nM
- Emax [2]: 0%
- EC50 [2]: > 25000 nM

SMILES: c1ccc(C2CCN([C@@H]3CCC4(C3)CN(c3nnco3)C4)CC2)c(OC2CCOCC2)c1 [Example 2F, (R)-2-(6-(4-(2-((tetrahydro-2H-pyran-4-yl)oxy)phenyl)piperidin-1-yl)-2-azaspiro[3.4]octan-2-yl)-1,3,4-oxadiazole]
- Emax [1]: 22%
- EC50 [1]: 64 nM
- Emax [2]: 0%
- EC50 [2]: > 25000 nM

SMILES: c1ccc(C2CCN([C@@H]3CCC4(C3)CN(c3nnco3)C4)CC2)c(OCC2CCOCC2)c1 [Example 2G, (R)-2-(6-(4-(2-((tetrahydro-2H-pyran-4-yl)methoxy)phenyl)piperidin-1-yl)-2-azaspiro[3.4]octan-2-yl)-1,3,4-oxadiazole]
- Emax [1]: 19%
- EC50 [1]: 136 nM
- Emax [2]: 0%
- EC50 [2]: > 25000 nM

SMILES: c1ccc(C2CCN([C@@H]3CCC4(C3)CN(c3nnco3)C4)CC2)c(C2CCOCC2)c1 [Example 2H, (R)-2-(6-(4-(2-(tetrahydro-2H-pyran-4-yl)phenyl)piperidin-1-yl)-2-azaspiro[3.4]octan-2-yl)-1,3,4-oxadiazole]
- Emax [1]: 32%
- EC50 [1]: 458 nM
- Emax [2]: 0%
- EC50 [2]: > 25000 nM

SMILES: Fc1ccc(C2CCOCC2)c(C2CCN([C@@H]3CCC4(C3)CN(c3nnco3)C4)CC2)c1 [Example 2I, (R)-2-(6-(4-(5-fluoro-2-(tetrahydro-2H-pyran-4-yl)phenyl)piperidin-1-yl)-2-azaspiro[3.4]octan-2-yl)-1,3,4-oxadiazole]
- Emax [1]: 41%
- EC50 [1]: 125 nM
- Emax [2]: 0%
- EC50 [2]: > 25000 nM

SMILES: c1ccc(C2CCOC2)c(C2CCN([C@@H]3CCC4(C3)CN(c3nnco3)C4)CC2)c1 (stereo partly drawn) [Example 2K, 2-((6R)-6-(4-(2-(tetrahydrofuran-3-yl)phenyl)piperidin-1-yl)-2-azaspiro[3.4]octan-2-yl)-1,3,4-oxadiazole]
- Emax [1]: 29%
- EC50 [1]: 159 nM
- Emax [2]: 0%
- EC50 [2]: > 25000 nM

SMILES: c1ccc(C2CCN([C@@H]3CCC4(C3)CN(c3nnco3)C4)CC2)c(CC2CCOCC2)c1 [Example 2L, (R)-2-(6-(4-(2-((tetrahydro-2H-pyran-4-yl)methyl)phenyl)piperidin-1-yl)-2-azaspiro[3.4]octan-2-yl)-1,3,4-oxadiazole]
- Emax [1]: 0%
- Emax [2]: 0%
- EC50 [2]: > 25000 nM

SMILES: c1ccc(C2CCN([C@@H]3CCC4(C3)CN(c3nnco3)C4)CC2)c(-c2ncco2)c1 [Example 2M, (R)-2-(6-(4-(2-(oxazol-2-yl)phenyl)piperidin-1-yl)-2-azaspiro[3.4]octan-2-yl)-1,3,4-oxadiazole]
- Emax [1]: 18%
- EC50 [1]: 343 nM
- Emax [2]: 0%
- EC50 [2]: > 25000 nM

SMILES: c1ccc(C2CCN([C@@H]3CCC4(C3)CN(c3nncs3)C4)CC2)c(OC2COC2)c1 [Example 3A, (R)-2-(6-(4-(2-(oxetan-3-yloxy)phenyl)piperidin-1-yl)-2-azaspiro[3.4]octan-2-yl)-1,3,4-thiadiazole]
- Emax [1]: 21%
- EC50 [1]: 76 nM
- Emax [2]: 0%
- EC50 [2]: > 25000 nM

SMILES: c1ccc(C2CCN([C@@H]3CCC4(C3)CN(c3nncs3)C4)CC2)c(OC[C@H]2COCCO2)c1 [Example 3B, 2-((R)-6-(4-(2-(((R)-1,4-dioxan-2-yl)methoxy)phenyl)piperidin-1-yl)-2-azaspiro[3.4]octan-2-yl)-1,3,4-thiadiazole]
- Emax [1]: 16%
- EC50 [1]: 18 nM
- Emax [2]: 0%
- EC50 [2]: > 25000 nM

SMILES: c1ccc(C2CCN([C@@H]3CCC4(C3)CN(c3nncs3)C4)CC2)c(OC[C@@H]2COCCO2)c1 [Example 3C, 2-((R)-6-(4-(2-(((S)-1,4-dioxan-2-yl)methoxy)phenyl)piperidin-1-yl)-2-azaspiro[3.4]octan-2-yl)-1,3,4-thiadiazole]
- Emax [1]: 18%
- EC50 [1]: 24 nM
- Emax [2]: 0%
- EC50 [2]: > 25000 nM

SMILES: COc1ccccc1C1CCN([C@@H]2CCC3(C2)CN(c2nncs2)C3)CC1 [Example 3D, (R)-2-(6-(4-(2-methoxyphenyl)piperidin-1-yl)-2-azaspiro[3.4]octan-2-yl)-1,3,4-thiadiazole]
- Emax [1]: 17%
- Emax [2]: 0%
- EC50 [2]: > 25000 nM

SMILES: Fc1cccc(C2CCN([C@@H]3CCC4(C3)CN(c3nncs3)C4)CC2)c1OC1COC1 [Example 3E, (R)-2-(6-(4-(3-fluoro-2-(oxetan-3-yloxy)phenyl)piperidin-1-yl)-2-azaspiro[3.4]octan-2-yl)-1,3,4-thiadiazole]
- Emax [1]: 31%
- EC50 [1]: 191 nM
- Emax [2]: 0%
- EC50 [2]: > 25000 nM

SMILES: COCCOc1ccccc1C1CCN([C@@H]2CCC3(C2)CN(c2nncs2)C3)CC1 [Example 3F, (R)-2-(6-(4-(2-(2-methoxyethoxy)phenyl)piperidin-1-yl)-2-azaspiro[3.4]octan-2-yl)-1,3,4-thiadiazole]
- Emax [1]: 0%
- Emax [2]: 0%
- EC50 [2]: > 25000 nM

SMILES: CC(C)(O)COc1ccccc1C1CCN([C@@H]2CCC3(C2)CN(c2nncs2)C3)CC1 [Example 3G, (R)-1-(2-(1-(2-(1,3,4-thiadiazol-2-yl)-2-azaspiro[3.4]octan-6-yl)piperidin-4-yl)phenoxy)-2-methylpropan-2-ol]
- Emax [1]: 20%
- EC50 [1]: 304 nM
- Emax [2]: 0%
- EC50 [2]: > 25000 nM

SMILES: CC(C)(O)CCOc1ccccc1C1CCN([C@@H]2CCC3(C2)CN(c2nncs2)C3)CC1 [Example 3H, (R)-4-(2-(1-(2-(1,3,4-thiadiazol-2-yl)-2-azaspiro[3.4]octan-6-yl)piperidin-4-yl)phenoxy)-2-methylbutan-2-ol]
- Emax [1]: 0%
- Emax [2]: 0%
- EC50 [2]: > 25000 nM

SMILES: COc1ccccc1C1CCN([C@@H]2CCC3(C2)CN(c2ccns2)C3)CC1 [Example 3I, (R)-5-(6-(4-(2-methoxyphenyl)piperidin-1-yl)-2-azaspiro[3.4]octan-2-yl)isothiazole]
- Emax [1]: 40%
- Emax [2]: 0%
- EC50 [2]: > 25000 nM

SMILES: COCCOc1ccccc1C1CCN([C@@H]2CCC3(C2)CN(c2ncns2)C3)CC1 [Example 3J, (R)-5-(6-(4-(2-(2-methoxyethoxy)phenyl)piperidin-1-yl)-2-azaspiro[3.4]octan-2-yl)-1,2,4-thiadiazole]
- Emax [1]: 0%
- Emax [2]: 0%
- EC50 [2]: > 25000 nM

SMILES: CC(C)(O)COc1ccccc1C1CCN([C@@H]2CCC3(C2)CN(c2ncns2)C3)CC1 [Example 3K, (R)-1-(2-(1-(2-(1,2,4-thiadiazol-5-yl)-2-azaspiro[3.4]octan-6-yl)piperidin-4-yl)phenoxy)-2-methylpropan-2-ol]
- Emax [1]: 0%
- Emax [2]: 0%
- EC50 [2]: > 25000 nM

SMILES: CC(C)(O)CCOc1ccccc1C1CCN([C@@H]2CCC3(C2)CN(c2ncns2)C3)CC1 [Example 3L, (R)-4-(2-(1-(2-(1,2,4-thiadiazol-5-yl)-2-azaspiro[3.4]octan-6-yl)piperidin-4-yl)phenoxy)-2-methylbutan-2-ol]
- Emax [1]: 0%
- Emax [2]: 0%
- EC50 [2]: > 25000 nM
